# In patent US11058700B2, “Macrocyclic lactones and uses thereof as modulators of purinergic receptors” (City of Hope, priority 2015, dated 2021):
# Tested on: TNBC cells
# Experiment: Extracellular ATP release
# Assay type: cell-based, mouse, human
# Experimental: FIGS. 3A-3G. Dual roles of ATP and purinergic signaling in Ivermectin's killing. FIG. 3A: Depletion of extracellular ATP with Apyrase (2500 μunits/ml) exacerbates killing of 4T1.2 cell by Ivermectin. FIG. 3B: Extracellular Ca^2− and ATP contain Ivermectin-induced cell swelling. 4T1.2 cells were treated with 32 μM Ivermectin for 4 h in the presence of 1 mM EDTA or 2500 μunits/ml Apyrase. FIG. 3C: Ivermectin (0.5-32 μM) and high concentrations of extracellular ATP (0.3-3 mM) synergistically open pannexin-1 channels and permeabilize the membrane on live cells (7AAD-positive dead cells were gated out). 4T1.2 cells were treated for 30 min as indicated in the presence of 7 AAD and 5 μM YOPRO-1. FIG. 3D: Analysis of supernatants from Ivermectin-treated murine and human TNBC cells showing rapid release of ATP followed by its transient depletion. Depletion of extracellular ATP with Apyrase (2500 μunits/ml) was used as a positive control. […]
# Extracellular ATP release. […] The cancer cells engineered to stably express the membrane-bound Luciferase were treated with Ivermectin for 30 min-4 h and luminescence was measured in the presence of 2 μM Luciferin. ATP concentration in Ivermectin treated supernatants was measured using ATP determination kit (Life Technologies, A22066) following manufacturers' instructions.
compound,measurement,value
CC[C@H](C)[C@H]1O[C@]2(CC[C@@H]1C)C[C@@H]1C[C@@H](C/C=C(\C)[C@@H](O[C@H]3C[C@H](OC)[C@@H](O[C@H]4C[C@H](OC)[C@@H](O)[C@H](C)O4)[C@H](C)O3)[C@@H](C)/C=C/C=C3\CO[C@@H]4[C@H](O)C(C)=C[C@@H](C(=O)O1)[C@]34O)O2 [Ivermectin],extracellular ATP levels in supernatants,immediate increase in extracellular ATP levels
